Measurements from patent US10336702B2, “Pharmaceutically active compounds” (BERGENBIO ASA, priority 2015, dated 2019).

Experiments:
p-Akt3 in WM115 cells = target: T1, p-Akt3 in WM115 cells (Homo sapiens, UniProt Q9Y243); experiment: Phospho-Akt cellular SureFire assay, p-Akt3 in WM115 cells; assay type: cell-based; settings: insulin stimulated, read-out: Biological Assay 2 IC50 (nM) Akt3 WM115
T1 construct: SureFire assays to detect cellular p-Akt1, p-Akt2 and p-Akt3 levels in WM115 cells (Akt2/3) and LNCaP cells (Akt1); endogenous in cells; host or cells: WM115 (ECACC 91061232), insulin-stimulated
Description: (§1) Biological Assay 2: Phospho-Akt (p-Akt) Cellular SureFire Assays
(§2) The following describes SureFire assays to detect cellular p-Akt1, p-Akt2 and p-Akt3 levels in WM115 cells (Akt2/3) and LNCaP cells (Akt1). In the case of Akt2 and Akt3, Streptavidin-coated donor beads capture a biotinylated anti-mouse antibody that in turn recognises a mouse total Akt antibody which is specific to each isoform. The protein A-conjugated acceptor beads capture an antibody that recognises the phosphoprotein. Similarly in the Akt1 kit, the donor and acceptor beads are used to capture each antibody pair consisting of an antibody that specifically recognises Akt1 as well as an antibody that recognises the phosphoprotein. In each case, close proximity of the beads allows energy transfer from donor to acceptor.
(§3) Custom kit from TGR/Perkin Elmer for Akt2/3 containing anti-(pThr308)Akt antibody and biotinylated anti-mouse capture antibody.
Total Akt3 antibody (R&D Systems MAB 1463)
(§4) WM115 cells (ECACC, 91061232) cultured in MEM culture media (M2279) supplemented with 2 mM L-glutamine (G7513), 1% non-essential amino acids (M7145), 1% sodium pyruvate (S8636) and 10% FBS (F0804)
(§5) Cell treatment: 1×10^5 WM115 cells or 5×10^4 LNCaP cells were seeded into each well of a 96 well poly-D-Lysine coated tissue culture plate and incubated overnight at 37° C.+5% CO2. Media was removed from cells and replaced with assay buffer consisting of the full culture media described above but with 0.1% FBS instead of 10% FBS. Only WM115 cells were stimulated at 37° C.+5% CO2 for 10 min with 5 μL insulin at a final concentration of 100 nM. Cells were incubated with 5 μL of test compound at a final DMSO concentration of 0.3% for 15 min at 37° C.+5% CO2. Cell lysis was carried out according to kit instructions.
(§6) Assay format (performed in subdued lighting): 4 μL cell lysate and 5 μL reaction buffer were incubated together in the dark at room temperature for 2 h. Reaction buffer was supplemented with a 1/5 dilution of activation buffer, a 1/50 dilution of acceptor beads and in the case of the custom kits, antibodies were added at dilutions of 1/20,000 for Akt2 and 1/2,000 for Akt3.
(§7) 2 μL dilution buffer, supplemented with a 1/20 dilution of donor beads was added to each well and incubated for a further 2 h. Plates were read with the EnVision® Multilabel Plate Reader and using the AlphaScreen settings. Compound IC50 was determined using a 4-parameter equation.

p-Akt1 in LNCaP cells = target: T2, p-Akt1 in LNCaP cells (Homo sapiens, UniProt P31749); experiment: Phospho-Akt cellular SureFire assay, p-Akt1 in LNCaP cells; assay type: cell-based; settings: read-out: Biological Assay 2 IC50 (nM) Akt1 LNCaP
T2 construct: SureFire assays to detect cellular p-Akt1, p-Akt2 and p-Akt3 levels in WM115 cells (Akt2/3) and LNCaP cells (Akt1); endogenous in cells; host or cells: LNCaP (ECACC 89110211)
Description: as §1, §2
AlphaScreen® SureFire™ Phospho-Akt1 (pThr308) Kit from Perkin Elmer (TGRA2S10K)
LNCaP cells (ECACC, 89110211) cultured in RPMI-1640 culture media (Fisher, 10665193) supplemented with 2 mM L-glutamine, 1% sodium pyruvate and 10% FBS
as §5, §6, §7

p-Akt2 in WM115 cells = target: T3, p-Akt2 in WM115 cells (Homo sapiens, UniProt P31751); experiment: Phospho-Akt cellular SureFire assay, p-Akt2 in WM115 cells; assay type: cell-based; settings: insulin stimulated, read-out: Biological Assay 2 IC50 (nM) Akt2 WM115
T3 construct: SureFire assays to detect cellular p-Akt1, p-Akt2 and p-Akt3 levels in WM115 cells (Akt2/3) and LNCaP cells (Akt1); endogenous in cells; host or cells: WM115 (ECACC 91061232), insulin-stimulated
Description: as §1, §2, §3
Total Akt2 antibody (NEB UK, 5239)
as §4, §5, §6, §7

Akt2 = target: T4, Akt2 (Homo sapiens, UniProt P31751); experiment: Akt activation assay (PDK1-mediated activation, LANCE Ultra crosstide TR-FRET), Akt2; assay type: biochemical; settings: read-out: Biological Assay 1 IC50 (nM) Akt2
T4 construct: unspecified tag, removed (detagged) (cleaved yes); purchased SignalChem and Proteros (Akt2); Merck Millipore (PDK1) 14-452 (PDK1); none given for Akt2
In short: (§8)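 Human Akt1, Akt2 or Akt3 (SignalChem: 5, 15, 3 nM; Proteros: 5 nM each) was preincubated with compound, then activated by 5 nM PDK1 on PtdIns(3,4,5)P3/DOPS/DOPC vesicles with 100 µM ATP and 100 nM ULight-crosstide (HEPES pH 7.5, 1% DMSO) for 30 min. Product was detected by Eu-anti-phospho-crosstide TR-FRET (665/615 nm), with IC50 from a 4-parameter fit.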

Akt3 = target: T5, Akt3 (Homo sapiens, UniProt Q9Y243); experiment: Akt activation assay (PDK1-mediated activation, LANCE Ultra crosstide TR-FRET), Akt3; assay type: biochemical; settings: read-out: Biological Assay 1 IC50 (nM) Akt3
T5 construct: unspecified tag, removed (detagged) (cleaved yes); purchased SignalChem and Proteros (Akt3); Merck Millipore (PDK1) 14-452 (PDK1); none given for Akt3
In short: as §8

Akt1 = target: T6, Akt1 (Homo sapiens, UniProt P31749); experiment: Akt activation assay (PDK1-mediated activation, LANCE Ultra crosstide TR-FRET), Akt1; assay type: biochemical; settings: read-out: Biological Assay 1 IC50 (nM) Akt1
T6 construct: unspecified tag, removed (detagged) (cleaved yes); purchased SignalChem and Proteros (Akt1); Merck Millipore (PDK1) 14-452 (PDK1); none given for Akt1
In short: as §8

T2 sequence (P31749 whole entry): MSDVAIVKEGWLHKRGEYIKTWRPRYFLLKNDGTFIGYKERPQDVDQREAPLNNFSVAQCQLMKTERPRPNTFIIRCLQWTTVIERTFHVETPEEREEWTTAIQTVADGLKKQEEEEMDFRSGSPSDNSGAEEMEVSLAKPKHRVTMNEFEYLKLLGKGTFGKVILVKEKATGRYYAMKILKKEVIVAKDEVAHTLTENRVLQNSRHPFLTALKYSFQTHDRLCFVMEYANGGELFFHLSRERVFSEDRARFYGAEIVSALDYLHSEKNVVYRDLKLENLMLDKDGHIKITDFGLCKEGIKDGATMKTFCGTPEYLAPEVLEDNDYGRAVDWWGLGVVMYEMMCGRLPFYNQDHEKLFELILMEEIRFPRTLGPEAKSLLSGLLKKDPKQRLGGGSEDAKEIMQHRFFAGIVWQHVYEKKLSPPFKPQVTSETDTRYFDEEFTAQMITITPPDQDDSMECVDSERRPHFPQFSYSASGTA
T6 sequence (P31749 whole entry): as above
T3 sequence (P31751 whole entry): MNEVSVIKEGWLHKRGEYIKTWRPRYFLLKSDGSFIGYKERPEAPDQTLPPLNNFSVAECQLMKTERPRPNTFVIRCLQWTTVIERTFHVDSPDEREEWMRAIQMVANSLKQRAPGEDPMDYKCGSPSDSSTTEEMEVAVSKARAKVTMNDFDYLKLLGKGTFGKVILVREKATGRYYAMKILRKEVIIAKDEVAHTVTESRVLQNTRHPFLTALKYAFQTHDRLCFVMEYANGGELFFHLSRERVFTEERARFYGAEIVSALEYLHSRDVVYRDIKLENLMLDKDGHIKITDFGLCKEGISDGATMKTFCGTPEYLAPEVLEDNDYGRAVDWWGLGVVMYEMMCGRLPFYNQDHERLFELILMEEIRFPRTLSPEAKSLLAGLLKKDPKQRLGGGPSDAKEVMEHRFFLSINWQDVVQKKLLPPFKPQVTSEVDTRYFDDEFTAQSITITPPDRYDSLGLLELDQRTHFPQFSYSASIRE
T4 sequence (P31751 whole entry): as above
T5 sequence (Q9Y243 whole entry): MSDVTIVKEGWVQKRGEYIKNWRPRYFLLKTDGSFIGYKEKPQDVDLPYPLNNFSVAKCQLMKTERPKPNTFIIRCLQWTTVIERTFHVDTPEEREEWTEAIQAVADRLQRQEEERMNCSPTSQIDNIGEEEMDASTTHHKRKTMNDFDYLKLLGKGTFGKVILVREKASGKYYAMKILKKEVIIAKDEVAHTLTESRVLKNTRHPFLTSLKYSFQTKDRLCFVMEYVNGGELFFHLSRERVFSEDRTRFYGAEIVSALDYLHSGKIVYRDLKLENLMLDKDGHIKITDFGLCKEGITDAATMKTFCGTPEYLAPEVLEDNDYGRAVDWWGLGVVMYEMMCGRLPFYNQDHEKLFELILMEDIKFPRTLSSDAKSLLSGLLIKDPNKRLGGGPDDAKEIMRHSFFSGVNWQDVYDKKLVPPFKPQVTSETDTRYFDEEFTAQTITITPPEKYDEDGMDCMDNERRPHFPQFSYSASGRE
T1 sequence (Q9Y243 whole entry): as above

Structure (SMILES) | IC50 (p-Akt3 in WM115 cells) | IC50 (p-Akt1 in LNCaP cells) | IC50 (p-Akt2 in WM115 cells) | IC50 (Akt2) | IC50 (Akt3) | IC50 (Akt1)
CC(=O)N[C@H]1CC[C@H](C(C)C(=O)Nc2cnc(-c3ccc(C4(N)CCC4)cc3)c(-c3ccccc3)c2)CC1 (relative stereo) [Example 41, 2-(trans-4-acetamidocyclohexyl)-N-(6-(4-(1-aminocyclobutyl)phenyl)-5-phenylpyridin-3-yl)propanamide] | 130 nM | > 30000 nM | 1500 nM | 240 nM | 170 nM | 
COC(=O)N(C)[C@H]1CC[C@H](CC(=O)Nc2cc(-c3ccccc3)c(-c3ccc(C(C)(C)N)cc3)cn2)CC1 [Example A48, Methyl (trans-4-(2-((5-(4-(2-aminopropan-2-yl)phenyl)-4-phenylpyridin-2-yl)amino)-2-oxoethyl)cyclohexyl)(methyl)carbamate] | 1700 nM | > 30000 nM | > 30000 nM |  |  | 
C[C@]1(O)C[C@@](N)(c2ccc(-c3nnc(NC(=O)C[C@H]4CC[C@H](N5CCOC5=O)CC4)nc3-c3ccccc3F)cc2)C1 [Example 68, N-(6-(4-(trans-1-amino-3-hydroxy-3-methylcyclobutyl)phenyl)-5-(2-fluorophenyl)-1,2,4-triazin-3-yl)-2-(trans-4-(2-oxooxazolidin-3-yl)cyclohexyl)acetamide] | 410 nM | > 30000 nM |  | 860 nM | 99 nM | 6400 nM
COC(=O)N(C)[C@H]1CC[C@H](CC(=O)Nc2cnc(-c3ccc(C4(N)CC4)c(F)c3)c(-c3ccccc3)c2)CC1 [Example 62, Methyl (trans-4-(2-((6-(4-(1-aminocyclopropyl)-3-fluorophenyl)-5-phenylpyridin-3-yl)amino)-2-oxoethyl)cyclohexyl)(methyl)carbamate] | 360 nM | > 30000 nM |  | 2300 nM | 170 nM | > 30000 nM
CC(=O)N(C(C)C)[C@H]1CC[C@H](CC(=O)Nc2cnc(-c3ccc(C4(N)CCC4)cc3)c(-c3ccccc3)c2)CC1 [Example 49, N-(6-(4-(1-aminocyclobutyl)phenyl)-5-phenylpyridin-3-yl)-2-(trans-4-(N-isopropylacetamido)cyclohexyl)acetamide] | 140 nM |  | 2900 nM | 530 nM | 280 nM | 6900 nM
COC(=O)N(C)[C@H]1CC[C@H](CC(=O)Nc2cc(-c3ccccc3)c(-c3ccc(C4(N)CC4)cc3)nn2)CC1 [Example A77, Methyl (trans-4-(2-((6-(4-(1-aminocyclopropyl)phenyl)-5-phenylpyridazin-3-yl)amino)-2-oxoethyl)cyclohexyl)(methyl)carbamate] | 240 nM | > 30000 nM |  | 590 nM | 22 nM | > 25000 nM
Cc1nncn1[C@H]1CC[C@H](CC(=O)Nc2cnc(-c3ccc(C4(N)CCC4)cc3)c(-c3ccccc3)c2)CC1 [Example A17, N-(6-(4-(1-aminocyclobutyl)phenyl)-5-phenylpyridin-3-yl)-2-(trans-4-(3-methyl-1,2,4-triazol-4-yl)cyclohexyl)acetamide] | 1000 nM |  | 12000 nM | 420 nM | 62 nM | 1500 nM
CCOC(=O)N(C)[C@H]1CC[C@H](CC(=O)Nc2cc(-c3ccsc3)c(-c3ccc([C@]4(N)C[C@](C)(O)C4)cc3)cn2)CC1 [Example A90, Ethyl (trans-4-(2-((5-(4-(trans-1-amino-3-hydroxy-3-methylcyclobutyl)phenyl)-4-(thiophen-3-yl)pyridin-2-yl)amino)-2-oxoethyl)cyclohexyl)(methyl)carbamate] | 180 nM |  | 4700 nM | 300 nM | 15 nM | 10000 nM
NC1(c2ccc(-c3ncc(NC(=O)C[C@H]4CC[C@H](N5CCOC5=O)CC4)cc3-c3ccccc3)cc2)CCC1 [Example A27, N-(6-(4-(1-aminocyclobutyl)phenyl)-5-phenylpyridin-3-yl)-2-(trans-4-(2-oxooxazolidin-3-yl)cyclohexyl)acetamide] | 51 nM |  | 790 nM | 180 nM | 19 nM | 4100 nM
CC(C)(N)c1ccc(-c2ncc(NC(=O)C[C@H]3CC[C@H](N4CCCCC4=O)CC3)cc2-c2ccccc2)cc1 [Example 28, N-(6-(4-(2-aminopropan-2-yl)phenyl)-5-phenylpyridin-3-yl)-2-(trans-4-(2-oxopiperidin-1-yl)cyclohexyl)acetamide] | 260 nM | > 30000 nM |  | 7000 nM | 440 nM | > 30000 nM
CCC(=O)N(C)[C@H]1CC[C@H](CC(=O)Nc2cc(-c3ccccc3F)c(-c3ccc(C4(N)CCC4)cc3)cn2)CC1 [Example A102, N-(trans-4-(2-((5-(4-(1-aminocyclobutyl)phenyl)-4-(2-fluorophenyl)pyridin-2-yl)amino)-2-oxoethyl)cyclohexyl)-N-methylpropionamide] | 160 nM |  | 2300 nM | 100 nM | 14 nM | > 19000 nM
NC1(c2ccc(-c3ncc(NC(=O)C[C@H]4CC[C@H](N5CCOC5=O)CC4)cc3-c3ccccc3)cc2)CC(F)(F)C1 [Example A3, N-(6-(4-(1-amino-3,3-difluorocyclobutyl)phenyl)-5-phenylpyridin-3-yl)-2-(trans-4-(2-oxooxazolidin-3-yl)cyclohexyl)acetamide] | 100 nM |  | 2600 nM | 530 nM | 150 nM | > 5100 nM
CC(=O)N(C)[C@H]1CC[C@H](CC(=O)Nc2cc(-c3ccccc3)c(-c3ccc([C@]4(N)C[C@](C)(O)C4)c(F)c3)cn2)CC1 [Example 111, N-(5-(4-(trans-1-amino-3-hydroxy-3-methylcyclobutyl)-3-fluorophenyl)-4-phenylpyridin-2-yl)-2-(trans-4-(N-methylacetamido)cyclohexyl)acetamide] | 29 nM |  | 3200 nM | 1400 nM | 68 nM | > 27000 nM
CCC(=O)N(C)[C@H]1CC[C@H](CC(=O)Nc2cc(-c3ccccc3)c(-c3ccc([C@]4(N)C[C@H](F)C4)cc3)nn2)CC1 [Example 123, N-(trans-4-(2-((6-(4-(trans-1-amino-3-fluorocyclobutyl)phenyl)-5-phenylpyridazin-3-yl)amino)-2-oxoethyl)cyclohexyl)-N-methylpropionamide] | 38 nM |  | 1700 nM | 230 nM | 12 nM | > 25000 nM
